Results from patent US12492232B2, “Methods for producing proteins” (South Australian Health and Medical Research Institute …, priority 2018, dated 2025).
“Also recorded” adds a separate entry of the source.

Columns and labels:
Format in all cases: cell-based
mTORC1 signalling = mTORC1 signalling (Western blot, S6K1 and rpS6) in transfected CHO cells starved of serum and amino acids, with or without TSC1/2 co-transfection
Method: GTP. GST-Rheb bound to GDP or GTP was pulled down using glutathione beads and the nucleotides were then separated by thin-layer chromatography and visualized by phosphorimager. The positions of GDP and GTP are shown (FIG. 1A). […] FIGS. 1C-1D: CHO cells were co-transfected using Lipofectamine 3000 with vectors encoding wildtype (WT) Rheb or the indicated mutants and TSC1/2 as indicated. 36 h after transfection, cells were transferred to Ham's F12 media lacking FBS for 16 h. Cells were the transferred to Dulbecco's phosphate-buffered saline (D-PBS, which lacks amino acids) for 1 h before cell lysates were harvested for SDS-PAGE and Western Blotting analysis using the indicated antibodies.

[1] = test system: mTORC1 localisation at the lysosome; experiment: Immunofluorescence of mTOR and LAMP1 colocalisation in serum-starved transfected CHO cells; conditions: medium lacking FBS for 16 h
Method: (§1) 24 h after transfection cells were transferred to medium lacking FBS for 16 hours. Cells were fixed with 4% paraformaldehyde, permeabilized with 0.05% Triton X-100, blocked with 10% normal donkey serum before LAMP1 and then anti-mTOR antibodies were applied overnight. Alexa Fluor™ 488 and 594-labelled secondary antibodies were applied before cells were mounted and stained with DAPI.
as §1, with “h.” for “hours.”, “mTOR” for “then anti-mTOR”, “594” for “594-labelled”

CHO cells = experiment: Growth of transfected CHO cells in medium with 10%, 1%, 0.5% or 0% FBS (cell counts over 7 days)
Method: CHO cells were seeded into 24-well plates at 5,000 cells/well. […] 24 h after transfection, cells were transferred to medium containing 10%, 1%, 0.5% or 0% FBS as indicated. Every 24 h for 7 days, cells were trypsinized (from different dishes on each occasion) and counted on a haemocytometer. Growth medium was changed every 2 days.
CHO cells were seeded into 24-well plates at 5,000 cells/well. […] 24 h after transfection, cells were transferred to media (Ham's F12 from Life Technologies, Cat. No. 11765054) containing 10%, 1%, 0.5% or 0% foetal bovine serum, as indicated. Cells were trypsinized and counted on a haemocytometer every 24 h for 7 days. Growth medium was changed every 2 days.

[2] = test system: CHO cells stably expressing Firefly luciferase (FLuc); experiment: Firefly luciferase assay in CHO cells stably expressing FLuc transfected with Rheb vectors; conditions: day 7, normalised to cell number
Method: CHO cells stably expressing Firefly luciferase (FLuc) or Gaussia luciferase (GLuc) as indicated were transfected using Lipofectamine3000 with an empty vector (EV) or vectors for Rheb WT, S21L, T23M, G29S, Y35N or E40K and also treated with the mTOR inhibitor AZD8055 at 100 nM for the total duration where indicated. Fluc and GLuc assays were performed 24 h after transfection and then every 48 h for 7 days. Assay results are normalised to cell number. GLuc-CHO cells were harvested for SDS-PAGE and Western Blot analysis at the 168 h (7-day) time-point to probe for intracellular GLuc, FLAG (Rheb) and actin, as ‘loading control’. […] In (E), secreted GLuc was monitored every 4 h from 24 h to 60 h showing the rate of secretion of GLuc was higher when Rheb-T23M is expressed as compared to Rheb-Y35N. The pattern for intracellular levels of Gaussia luciferase (assessed by immunoblot of cell lysates harvested at 7 days post transfection) more closely resemble those intracellular firefly luciferase (F) with little change compared to either the empty vector or WT while still retaining heightened mTORC1 signalling as indicated by the elevated levels of P-S6K1 Thr389 compared to cells transfected with the empty vector. […]

Rheb-T23M: human Rheb protein with a methionine variant at residue 23 (T23M), SEQ ID NO. 3
mTORC1 signalling in the absence of upstream activation (mTORC1 signalling; no serum 16 h, D-PBS 1 h, compared to empty vector and Rheb-WT): increased mTORC1 signalling over both the empty vector and Rheb-WT
mTORC1 signalling when co-transfected with TSC1/TSC2 (mTORC1 signalling; no serum and amino acids, co-transfected with TSC1/TSC2): no reduction
mTOR localisation to the lysosome (overlap with LAMP1) [1]: promote localisation; also recorded: strong mTOR localisation on lysosomes
cell growth in serum-free medium (CHO cells; 0% FBS): allows CHO cells to grow efficiently in serum-free medium
cell growth in 0.5% FBS (CHO cells; 0.5% FBS): significant growth advantage over the other Rheb mutants; also recorded: substantially greater proliferation
cell growth in medium with 10% and 1% FBS (CHO cells; 10% or 1% FBS): no effect on cell growth
increase in synthesis of intracellular Firefly luciferase compared to the empty vector [2]: ca. 1.2 fold
